# Test results as given in US9248150B2 (priority 2009, dated 2016).
# Values joined by “and” are separate entries in the source; they are usually repeats but may differ in a detail not shown here. Equal entries are not always repeated. “Also recorded” adds a separate entry of the source.
# Key:
# [1] = system: NOX3 mRNA; test: Kidney NOX3 mRNA by real time RT-PCR; assay type: in vivo, male Wistar rats; details: 72 h
# Excerpt: (§1) Kidneys were harvested, total RNA was isolated, reverse transcribed and real time RT-PCR performed substantially as described herein above. FIG. 8A is a bar graph of the increase in mRNA expression for each of KIM-1 (green), NOX3 (blue) and TRPV1 (red) observed. […] Attenuation of these markers by transplatin is indicative of its nephroprotective role.
# [2] = system: TRPV1 mRNA; test: Kidney TRPV1 mRNA by real time RT-PCR; assay type: in vivo, male Wistar rats; details: 72 h
# Excerpt: as §1
# [3] = system: outer hair cells of the organ of Corti; test: Outer hair cell damage by scanning electron microscopy, i.p. transplatin; assay type: in vivo, rat; details: 72 h
# [4] = system: KIM-1; test: KIM-1 immunoreactivity in cochlea sections; assay type: in vivo, male Wistar rats; details: 72 h
# Protocol: Cochleas were harvested 72 h later, fixed in 4% paraformaldehyde, decalcified, sectioned and stained for KIM1 immunoreactivity. FIG. 3C is a panel of photomicrographs of the cochlea sections from following the different treatment conditions and stained for KIM-1 immunoreactivity. […] (SVA-stria vascularis, OHC-outer hair cell, RM-Reissner's membrane, SG—spiral ganglion).
# [5] = system: UB/OC-1 hair cells; test: Cell viability by trypan blue staining; assay type: cell-based
# Protocol: Cells were then treated with trypan blue and the number of viable cells per high power field determined and expressed as a percent of total cell per field. […] Data are present as the mean±standard error from four independent coverslips.
# [6] = system: NOX3 mRNA; test: NOX3 mRNA by real time RT-PCR in UB/OC-1 cells; assay type: cell-based
# Protocol: RNA was isolated by adding 1 ml TRI reagent to 100 mg of cochlear tissue or 0.5 ml TRI reagent per well of each six well plate. Tissues were homogenized in TRI reagent using a Polytron (setting 7, 15 sec) and centrifuged at 12,000×g for 10 min at 4° C. The remainder of the procedure was identical to that described in D. Mukherjea et al., NEUROSCIENCE 139:733-740 (2006).
# (§2) For real time reverse transcriptase polymerase chain reaction (RT-PCR), one microgram of total RNA was converted to cDNA using iScript cDNA Synthesis Kit (Bio-Rad, Hercules, Calif.) and sample preparations were performed essentially as previously described (D. Mukherjea et al., NEUROSCIENCE 139:733-740 (2006)). Amplification and detection was performed with the Cepheid Smart Cycler Detection System. On completion of amplification, the melting curve analysis was performed by cooling the reaction to 60° C. and then heating slowly 95° C., according to the instruction of manufacturer (Cepheid systems). The cycle number at which the sample reaches the threshold fluorescent intensity is termed the cycle threshold (Ct). The relative change in mRNA levels between untreated control (1) and treated sample (2) was measured using the formula: 2-ΔΔCt (R. Soong et al., Quantitative reverse transcription-polymerase chain reaction detection of cytokeratin 20 in noncolorectal lymph nodes, CLIN. CANCER RES. 7:3423-3429 (2001)). Relative change in mRNA levels between samples was expressed as a percentage of normal control. Negative controls for both target gene and GAPDH was used for all reaction groups. Real time PCR products were analyzed on a 2% agarose gel to verify the correct product sizes and visualization of the amplified product was effected using the dye SyBr Green I (Molecular Probes, Eugene, Oreg.).
# [7] = system: UB/OC-1 cells; test: Intracellular Ca2+ release by Fluo-4AM imaging; assay type: cell-based
# Protocol: UB/OC-1 cells were grown on glass coverslips. […] After incubation, cells were washed once with physiological buffer and then imaged by a Fluoview confocal microscope (Olympus Imaging America Inc., Center Valley, Pa., USA).
# [8] = system: AT6.1 rat prostate cancer cells; test: Cisplatin killing of tumor cells (imaging); assay type: cell-based
# Excerpt: Cells were fixed with 4% paraformaldehyde and imaged. FIG. 5B is a panel of photomicrographs of the cell images.
# [9] = system: KIM-1 mRNA; test: Kidney KIM-1 mRNA by real time RT-PCR; assay type: in vivo, male Wistar rats; details: 72 h
# Excerpt: as §1
# [10] = system: TRPV1 mRNA; test: TRPV1 mRNA by real time RT-PCR in UB/OC-1 cells; assay type: cell-based
# Protocol: as §2, with “Negative controls for both target gene and GAPDH was used for all reaction groups.” left out, “Oreg.). […]” for “Oreg.).”
# [11] = system: outer hair cells of the organ of Corti; test: Outer hair cell damage/loss by SEM, trans-tympanic transplatin; assay type: in vivo, Wistar rats
# Protocol: Post-treatment ABRs were conducted 72 h later. […] This was abrogated by pretreatment with trans-tympanic transplatin. […] Arrows indicate areas of damage to outer hair cells.
# [12] = system: TRP and P2x receptor channels in UB/OC-1 cells; test: FM1-43 dye uptake via TRP and P2x channels; assay type: cell-based; details: for basal FM1-43 uptake (fluorescence): added alone
# Excerpt: FM1-43 is selectively taken up by cells expressing the TRP and P2x receptor channels.
# Cells were scanned every 6 sec by Argon laser (480 nm) and at the 6th scan FM1-43 dye was dropped on the cells. FIG. 6 is panel of photomicrographs of the cells following dye exposure. […] Each gray-scale image to the right of each fluorescence image is the differential interference constrast image for the cells shown in the corresponding fluorescence image.
# [13] = system: NOX3; test: NOX3 immunoreactivity in cochlea sections; assay type: in vivo, male Wistar rats
# [14] = system: UB/OC-1 cells; test: ROS generation by H2DCFDA fluorescence, confocal microscopy; assay type: cell-based
# Excerpt: Imaging of ROS generation was done as previously described (P. Puntambekar et al., Essential role of Rac1/NADPH oxidase in nerve growth factor induction of TRPV1 expression, J. NEUROCHEM. 95: 1689-1703 (2005)).
# [15] = system: KIM-1 mRNA; test: KIM-1 mRNA by real time RT-PCR in UB/OC-1 cells; assay type: cell-based
# Protocol: as §2, with “Negative controls for both target gene and GAPDH was used for all reaction groups.” left out, “Oreg.). […]” for “Oreg.).”
# [16] = Body weight loss; assay type: in vivo, rat; details: data not shown
# [17] = Body temperature after i.p. transplatin; assay type: in vivo, rat; details: transplatin 5.5 mg/kg i.p., every 30 min for 150 min, 2 rats
# Protocol: TRPV1 antagonists were initially developed as novel treatments for inflammatory pain. However, it was observed that the administration of classical TRPV1 antagonists produced hyperthermia in animals and human (N. R. Gavva, Body-temperature maintenance as the predominant function of the vanilloid receptor TRPV1. TRENDS PHARMACOL SCI 29:550-557 (2007)), underscoring a role of TRPV1 in the control of body temperature. […] Body temperature was then recorded every 30 min for 150 min. FIG. 11 is a graph of the results observed in two rats (Tp) and a control animal (PBS).
# [18] = system: dorsal root ganglion (DRG) cells; test: NGF-induced ROS generation in dorsal root ganglion cells (H2DCFDA); assay type: cell-based, neonatal mice; details: transplatin 2.5 μM 30 min prior to NGF 100 ng/ml
# Protocol: Recent studies have shown that ROS generation is the single most important mediator of inflammation. Dorsal root ganglion (DRG) cells isolated from neonatal mice have shown increased ROS generation in response to nerve growth factor (NGF; data not shown). […] Fluorescent images were obtained at 0 sec and collected over a period of 5 min after addition of NGF (100 ng/ml). NGF generated ROS is shown by changes in fluorescence intensity over time.
# [19] = system: HEK-293 cells stably transfected with TRPV1 receptor; test: Capsaicin-induced ROS generation in HEK-VR1 cells; assay type: cell-based; details: transplatin 2.5 μM pre-treatment; data not shown
# Excerpt: Thus, transplatin can be useful in the treatment of inflammatory conditions, such as arthritis, inflammatory and chronic pain and cancer pain.
# [20] = Cisplatin-induced hearing loss, ABR threshold shifts, i.p. transplatin; assay type: in vivo, male Wistar rats
# Excerpt: Data are presented as the mean±standard error of 8 ears examined from 4 animals per group.
# [21] = system: cellular DNA; details: cited from earlier work
# [22] = transplatin 5.5 mg/kg i.p. alone
# [23] = transplatin 5.5 mg/kg i.p. followed by cisplatin 11 mg/kg i.p.
# [24] = transplatin 1, 2.5, 10 μM 30 min prior to cisplatin 5 μM 24 h
# [25] = transplatin 1 μM 30 min prior to cisplatin 5 μM
# [26] = trans-tympanic transplatin 50 μl of 0.5 mg/ml, then cisplatin 11 mg/kg i.p.
# [27] = transplatin 1 mg/kg i.p. then cisplatin 11 mg/kg i.p.
compound,measurement,setting,value
"N.N.[Cl][Pt][Cl] [cisplatin, reference compound]",kidney NOX3 mRNA expression,[1]; cisplatin 11 mg/kg i.p.,4 fold
same,kidney TRPV1 mRNA expression,[2]; cisplatin 11 mg/kg i.p.,6 fold
same,"outer hair cells damaged per field, basal turn of organ of Corti",[3]; cisplatin 11 mg/kg i.p.,~40%
same,KIM-1 immunolabeling in organ of Corti / cochlea sections,[4]; cisplatin 11 mg/kg i.p.,induction of KIM-1 immunolabeling
same,cell death,"[5]; cisplatin 20 μM, 24 h",~80%
same,NOX3 mRNA,[6]; cisplatin 5 μM,increase in NOX3 mRNA
same,intracellular Ca2+ (Fluo-4AM fluorescence),"[7]; cisplatin 5 μM, 30 min",increased fluorescence
same,cell loss,"[8]; cisplatin 100 μM, 24 h",~80%
same,kidney KIM-1 mRNA expression,[9]; cisplatin 11 mg/kg i.p.,50 fold
same,increase in TRPV1 mRNA expression over vehicle treated controls,"[10]; cisplatin 5 μM, 24 h",3.6 fold and 3.5±0.7 fold
same,outer hair cell damage/loss,"[11]; cisplatin 11 mg/kg i.p., 72 h",~70%
same,uptake of FM1-43 dye,"[12]; cisplatin 5 μM alone, 30 min",increased uptake of FM1-43 dye
same,"NOX3 immunoreactivity in cochlea (OHC, stria vascularis, spiral ganglion)","[13]; cisplatin 11 mg/kg i.p., 72 h",increased NOX3 protein
same,ROS generation (H2DCFDA fluorescence),"[14]; cisplatin 2.5 μM, 30 min",marked increase in ROS generation; also recorded: increases ROS generation
same,increase in KIM-1 mRNA expression over vehicle treated controls,"[15]; cisplatin 5 μM, 24 h",4 fold and 4±0.5 fold
"N.N.N.N.N.N.N.N.N.N.N.N.N.N.[Cl-].[Cl-].[Cl-].[Cl-].[Cl-].[Cl-].[O-2].[O-2].[Ru+3].[Ru+3].[Ru+4] [ruthenium red, reference compound]",basal FM1-43 uptake (fluorescence),[12],less inhibition of basal fluorescence than transplatin
"N.N.[Cl][Pt][Cl] [transplatin, trans-diamminedichloroplatinum (II)]",weight loss,[16]; transplatin by itself,did not produce weight loss
same,cisplatin-mediated weight loss,[16]; transplatin with cisplatin,did not inhibit cisplatin-mediated weight loss
same,kidney NOX3 mRNA expression compared to PBS controls,[1]; [22],1.3 fold
same,kidney NOX3 mRNA expression,[1]; [23],1.7 fold
same,kidney TRPV1 mRNA expression compared to PBS controls,[2]; [22],0.5 fold
same,kidney TRPV1 mRNA expression,[2]; [23],1.5 fold
same,"outer hair cells damaged per field, basal turn of organ of Corti",[3]; transplatin 5.5 mg/kg i.p. pretreatment then cisplatin 11 mg/kg i.p.,below 10%
same,body temperature,[17],did not produce any apparent increase in body temperature; also recorded: no apparent trend of higher body temperatures
same,cisplatin-induced KIM-1 immunolabeling in cochlea,[4]; [23],reduced; also recorded: decreased
same,cell survival,"[5]; transplatin 1, 2.5, 10 μM 30 min prior to cisplatin 20 μM 24 h, depending on dose",80-97%
same,NGF-induced ROS generation,[18],inhibited ROS generation
same,cisplatin-induced increase in NOX3 mRNA,[6]; [24],attenuated; also recorded: down regulates the increase in NOX3 mRNA
same,NOX3 mRNA expression,"[6]; transplatin alone (1, 2.5 μM)",almost no expression of NOX3 mRNA
same,cisplatin-induced increase in intracellular Ca2+,[7]; [25],abrogated
same,cell survival compared to vehicle control,[8]; transplatin alone,did not cause significant change in cell survival
same,ROS generation by 10 μM capsaicin,[19],inhibited
same,kidney KIM-1 mRNA expression compared to PBS controls,[9]; [22],1.7 fold
same,kidney KIM-1 mRNA expression,[9]; [23],1.1 fold
same,cisplatin-induced TRPV1 mRNA expression,"[10]; transplatin 1, 2.5, 10 μM 30 min prior to cisplatin 5 μM 24 h, 10 μM best inhibition",attenuated; also recorded: abrogated by transplatin at higher concentrations
same,cisplatin-induced outer hair cell damage (SEM morphology),[11]; [26],almost completely abrogated
same,outer hair cell damage/loss,[11]; [26],~7%
same,basal FM1-43 uptake (fluorescence),[12],reduced fluorescence below that of the control cells
same,FM1-43 dye entry after cisplatin,[12]; [25],decreased entry of the dye
same,animals protected,[20]; [27],75%
same,reductions in ABR thresholds (number protected),[20]; [27],6 of 8
same,auditory protection,[20]; transplatin 3 mg/kg i.p. then cisplatin 11 mg/kg i.p.,complete protection
same,auditory protection,[20]; transplatin 5.5 mg/kg i.p. then cisplatin 11 mg/kg i.p.,complete protection
same,ABR thresholds,[20]; transplatin alone,did not affect the ABR thresholds
same,cisplatin-induced increase in NOX3 in cochlea,"[13]; transplatin 5.5 mg/kg i.p. immediately before cisplatin 11 mg/kg i.p., 72 h",reduced
same,NOX3 expression in cochlea vs vehicle control,[13]; transplatin alone,did not increase NOX3 expression
same,cisplatin-induced increase in ROS generation,"[14]; pretreatment with transplatin 1 μM, then cisplatin 2.5 μM 30 min",attenuated; also recorded: significantly reduced
same,ROS generation,[14]; transplatin administered alone,did not stimulate ROS generation
same,time of maximum DNA binding,[21],6 h
same,cisplatin-induced KIM-1 mRNA,[15]; [24],attenuated to control levels
